Results reported in US20120115724A1, “METHOD OF CONTROLLING UNDESIRED VEGETATION” (SYNGENTA CROP PROTECTION LLC, priority 2009, published 2012).

Assays:
Type in all cases: in vivo
[1] = test system: AMARE Amaranthus retroflexus; experiment: Post-emergence crop and weed test (Example 15); conditions: 360 h, after 15 days, read-out: Percentage damage AMARE
Method: (§1) Seeds of crop and representative weed species were sown in standard soil in pots. After cultivation for 14 days under controlled conditions in a glasshouse (at 22/16° C., day/night; 16 hours light; 65% humidity), the plants were sprayed. The spray solution was prepared by dissolving the technical active ingredient in acetone containing 10.56 wt % Emulsogen EL, 42.22 wt % N-methylpyrrolidone and 2.22 wt % DPG-monoethyl ether to give a 5% stock solution. This was then diluted with water containing 0.2% (v/v) of the adjuvant X-77 to give the desired treatment concentration.
(§2) The test plants were then grown on under controlled conditions in a glasshouse (at 22/16° C., day/night; 16 hours light; 65% humidity) and watered twice daily. After 15 days the test was evaluated (100 =total damage to plant; 0 =no damage to plant).

[2] = test system: EPHHL Euphorbia heterophylla; experiment: Post-emergence crop and weed test (Example 15); conditions: 360 h, after 15 days, read-out: Percentage damage EPHHL
Method: as §1, §2

[3] = test system: ABUTH Abutilon theophrasti; experiment: Post-emergence crop and weed test (Example 15); conditions: 360 h, after 15 days, read-out: Percentage damage ABUTH
Method: as §1, §2

[4] = test system: POLCO Polygonum convolvulus; experiment: Post-emergence crop and weed test (Example 15); conditions: Fallopia convolvulus, 360 h, after 15 days, read-out: Percentage damage POLCO
Method: as §1, §2

[5] = test system: CHEAL Chenopodium album; experiment: Post-emergence crop and weed test (Example 15); conditions: 360 h, after 15 days, read-out: Percentage damage CHEAL
Method: as §1, §2

[6] = test system: GALAP Galium aparine; experiment: Post-emergence crop and weed test (Example 15); conditions: 360 h, after 15 days, read-out: Percentage damage GALAP
Method: as §1, §2

[7] = test system: IPOHE Ipomoea hederacea; experiment: Post-emergence crop and weed test (Example 15); conditions: 360 h, after 15 days, read-out: Percentage damage IPOHE
Method: as §1, §2

[8] = test system: SIDSP Sida spinosa; experiment: Post-emergence crop and weed test (Example 15); conditions: 360 h, after 15 days, read-out: Percentage damage SIDSP
Method: as §1, §2

[9] = test system: VERPE Veronica persica; experiment: Post-emergence crop and weed test (Example 15); conditions: 360 h, after 15 days, read-out: Percentage damage VERPE
Method: as §1, §2

[10] = test system: XANST Xanthium strumarium; experiment: Post-emergence crop and weed test (Example 15); conditions: 360 h, after 15 days, read-out: Percentage damage XANST
Method: as §1, §2

[11] = test system: SINAR Sinapis arvensis; experiment: Post-emergence crop and weed test (Example 15); conditions: Mutarda arvensis, 360 h, after 15 days, read-out: Percentage damage SINAR
Method: as §1, §2

[12] = test system: KCHSC Kochia scoparia; experiment: Post-emergence crop and weed test (Example 15); conditions: Bassia scoparia, 360 h, after 15 days, read-out: Percentage damage KCHSC
Method: as §1, §2

[13] = test system: GLXMA Soybean; experiment: Post-emergence crop and weed test (Example 15); conditions: Glycine max, 360 h, after 15 days, read-out: Percentage damage GLXMA
Method: as §1, §2

[14] = test system: Ipomea hederaceae (IPOHE); experiment: Pre-emergence biological efficacy (Example 13); conditions: Ipomoea hederacea, 312 h; pre-emergence, 1,000 g/ha, after 13 days; read-out: Percentage damage IPOHE
Procedure, shortened: (§3)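 Pots of standard soil are sown, held one day under controlled glasshouse conditions, then sprayed at 250 or 1000 g/ha. Plants grow on at 24/16 °C with 14 h light and 65% humidity, watered twice daily, and damage is assessed after 13 days.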

[15] = test system: Alopecurus myosuroides (ALOMY); experiment: Pre-emergence biological efficacy (Example 13); conditions: Alopecurus myosuroides, 312 h; pre-emergence, 1,000 g/ha, after 13 days; read-out: Percentage damage ALOMY
Procedure, shortened: as §3

[16] = test system: Setaria faberi (SETFA); experiment: Pre-emergence biological efficacy (Example 13); conditions: Setaria faberi, 312 h; pre-emergence, 1,000 g/ha, after 13 days; read-out: Percentage damage SETFA
Procedure, shortened: as §3

[17] = test system: Echinochloa crus-galli (ECHCG); experiment: Pre-emergence biological efficacy (Example 13); conditions: Echinochloa crus-galli, 312 h; pre-emergence, 1,000 g/ha, after 13 days; read-out: Percentage damage ECHCG
Procedure, shortened: as §3

[18] = test system: Solanum nigrum (SOLNI); experiment: Pre-emergence biological efficacy (Example 13); conditions: Solanum nigrum, 312 h; pre-emergence, 1,000 g/ha, after 13 days; read-out: Percentage damage SOLNI
Procedure, shortened: as §3

[19] = test system: Amaranthus retroflexus (AMARE); experiment: Pre-emergence biological efficacy (Example 13); conditions: Amaranthus retroflexus, 312 h; pre-emergence, 1,000 g/ha, after 13 days; read-out: Percentage damage AMARE
Procedure, shortened: as §3

[20] = test system: Ipomea hederaceae (IPOHE); experiment: Post-emergence biological efficacy (Example 14); conditions: Ipomoea hederacea, 312 h; post-emergence, 1,000 g/ha, after 13 days; read-out: Percentage damage IPOHE
Procedure, shortened: (§4)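 Seeds are sown in pots of standard soil and grown for 8 days under glasshouse conditions (24/16 °C, 14 h light, 65% humidity). Seedlings are then sprayed at 250 or 1000 g/ha in aqueous acetone with 0.5% Tween 20, kept under the same conditions, and rated for damage (0–100) after 13 days.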

[21] = test system: Alopecurus myosuroides (ALOMY); experiment: Post-emergence biological efficacy (Example 14); conditions: Alopecurus myosuroides, 312 h; post-emergence, 1,000 g/ha, after 13 days; read-out: Percentage damage ALOMY
Procedure, shortened: as §4

[22] = test system: Setaria faberi (SETFA); experiment: Post-emergence biological efficacy (Example 14); conditions: Setaria faberi, 312 h; post-emergence, 1,000 g/ha, after 13 days; read-out: Percentage damage SETFA
Procedure, shortened: as §4

[23] = test system: Echinochloa crus-galli (ECHCG); experiment: Post-emergence biological efficacy (Example 14); conditions: Echinochloa crus-galli, 312 h; post-emergence, 1,000 g/ha, after 13 days; read-out: Percentage damage ECHCG
Procedure, shortened: as §4

[24] = test system: Solanum nigrum (SOLNI); experiment: Post-emergence biological efficacy (Example 14); conditions: Solanum nigrum, 312 h; post-emergence, 1,000 g/ha, after 13 days; read-out: Percentage damage SOLNI
Procedure, shortened: as §4

[25] = test system: Amaranthus retroflexus (AMARE); experiment: Post-emergence biological efficacy (Example 14); conditions: Amaranthus retroflexus, 312 h; post-emergence, 1,000 g/ha, after 13 days; read-out: Percentage damage AMARE
Procedure, shortened: as §4

SMILES	pest or weed control at 30 g/ha [1]	pest or weed control at 30 g/ha [2]	pest or weed control at 30 g/ha [3]	pest or weed control at 30 g/ha [4]	pest or weed control at 30 g/ha [5]	pest or weed control at 30 g/ha [6]	pest or weed control at 30 g/ha [7]	pest or weed control at 30 g/ha [8]	pest or weed control at 30 g/ha [9]	pest or weed control at 30 g/ha [10]	pest or weed control at 30 g/ha [11]	pest or weed control at 30 g/ha [12]	plant injury at 30 g/ha [13]	also measured
C=Cc1c(NCc2ccco2)nc(-c2ccc(Cl)cc2)nc1C(=O)OC [Compound 7, 2-(4-Chlorophenyl)-5-ethenyl-4-(furan-2-ylmethylamino)-6-methoxycarbonyl-pyrimi-dine]	50%	0%	70%	40%	20%	60%	70%	0%	80%	50%	60%	40%	0%	pest or weed control at 1000 g/ha [14]: 40%; pest or weed control at 1000 g/ha [15]: 50%; pest or weed control at 1000 g/ha [16]: 10%; pest or weed control at 1000 g/ha [17]: 20%; pest or weed control at 1000 g/ha [18]: 20%; pest or weed control at 1000 g/ha [19]: 100%; pest or weed control at 1000 g/ha [20]: 80%; pest or weed control at 1000 g/ha [21]: 30%; pest or weed control at 1000 g/ha [22]: 0%; pest or weed control at 1000 g/ha [23]: 40%; pest or weed control at 1000 g/ha [24]: 90%; pest or weed control at 1000 g/ha [25]: 100%
COC(=O)c1nc(-c2ccc(Cl)c(N(C)C)c2F)nc(N)c1Cl [Ref. Ex. A, 4-Amino-5-chloro-2-(4-chloro-3-dimethylamino-2-fluorophenyl)-6-methoxycarbonyl-pyrimidine, reference compound]	100%	80%	90%	90%	80%	30%	70%	80%	70%	90%	70%	80%	50%	–
C/C=C/c1c(N)nc(C2CC2)nc1C(=O)OC [Ref. Ex. D, (E)-4-Amino-2-cyclopropyl-6-methoxycarbonyl-5-(prop-1-enyl)-pyrimidine, reference compound]	–	–	–	–	–	–	–	–	–	–	–	–	–	pest or weed control at 125 g/ha ([1]; 125 g/ha): 60%; pest or weed control at 125 g/ha ([2]; 125 g/ha): 80%; pest or weed control at 125 g/ha ([3]; 125 g/ha): 50%; pest or weed control at 125 g/ha ([4]; 125 g/ha): 20%; pest or weed control at 125 g/ha ([5]; 125 g/ha): 60%; pest or weed control at 125 g/ha ([6]; 125 g/ha): 80%; pest or weed control at 125 g/ha ([7]; 125 g/ha): 70%; pest or weed control at 125 g/ha ([8]; 125 g/ha): 60%; pest or weed control at 125 g/ha ([9]; 125 g/ha): 10%; pest or weed control at 125 g/ha ([10]; 125 g/ha): 60%; pest or weed control at 125 g/ha ([11]; 125 g/ha): 80%; pest or weed control at 125 g/ha ([12]; 125 g/ha): 10%; plant injury at 125 g/ha ([13]; 125 g/ha): 80%
